In US11999704B1, “1-(2-hydroxybenzylideneamino)-5-phenylimidazolidine-2,4-dione as an antimicrobial compound” (KING FAISAL UNIVERSITY, priority 2023, dated 2024):

What was measured:
Bacillus Cereus = test: Agar plate disc-diffusion, antibacterial activity (inhibition zone); format: cell-based; settings: nutrient agar, 37° C., 48 hours, DMSO zone subtracted; for inhibition zone, Bacillus Cereus, B: B = concentration of comp. = 30.000 μL; for inhibition zone, Bacillus Cereus, C: C = concentration of comp. = 50,000 μL
Procedure: (§1) The agar plate disc-diffusion method was applied. Sterilized filter papers (6 mm in diameter) were wetted with 10 μL of a solution of 1-(2-hydroxybenzylideneamino)-5-phenylimidazolidine-2,4-dione (4) to be tested, containing 10 mg/mL in DMSO, and the discs were allowed to air dry. The discs were then placed onto the surface of agar plates (nutrient agar for bacteria and Sabouraud's dextrose agar for fungi) seeded with the test organism. Each plate contained 15 mL of the agar medium, previously seeded with 0.2 mL of the broth culture of each organism pregrown for 18 hours. The plates were incubated at 37° C. for 48 hours, and 72 hours for fungi. The inhibition zones was measured in millimeter. Discs impregnated with DMSO were used as a control, and its inhibition zone was subtracted from the tested compound actual inhibition zone.
(§2) The results of the antimicrobial testing can be observed in Tables 1 and 2, below, with ciprofloxacin serving as a reference.

Escherichia coli = test: as above; format: cell-based; settings: nutrient agar, 37° C., 48 hours, DMSO zone subtracted; for inhibition zone, Escherichia coli, A: A = concentration of comp. = 10,000 μL; for inhibition zone, Escherichia coli, B: B = concentration of comp. = 30.000 μL; for inhibition zone, Escherichia coli, C: C = concentration of comp. = 50,000 μL
Procedure: as §1, §2

Pseudomonas aeruginosa = test: as above; format: cell-based; settings: nutrient agar, 37° C., 48 hours, DMSO zone subtracted; for inhibition zone, Pseudomonas aeruginosa, A: A = concentration of comp. = 10,000 μL; for inhibition zone, Pseudomonas aeruginosa, B: B = concentration of comp. = 30.000 μL; for inhibition zone, Pseudomonas aeruginosa, C: C = concentration of comp. = 50,000 μL
Procedure: as §1, §2

Staphylococcus aureus = test: as above; format: cell-based; settings: nutrient agar, 37° C., 48 hours, DMSO zone subtracted; for inhibition zone, Staphylococcus aureus, A: A = concentration of comp. = 10,000 μL; for inhibition zone, Staphylococcus aureus, B: B = concentration of comp. = 30.000 μL; for inhibition zone, Staphylococcus aureus, C: C = concentration of comp. = 50,000 μL
Procedure: as §1, §2

Aspergillus flavus = test: Agar plate disc-diffusion, antifungal activity (inhibition zone); format: cell-based; settings: Sabouraud's dextrose agar, 37° C., 72 hours, DMSO zone subtracted; for inhibition zone, Aspergillus flavus, A: A = concentration of comp. = 10,000 μL; for inhibition zone, Aspergillus flavus, B: B = concentration of comp. = 30.000 μL; for inhibition zone, Aspergillus flavus, C: C = concentration of comp. = 50,000 μL
Procedure: as §1, §2

[1] = test system: Chrysosporium keratinophilum; test: as above; format: cell-based; settings: Sabouraud's dextrose agar, 37° C., 72 hours, DMSO zone subtracted; for inhibition zone, Chrysosporium keratinophilum, A: A = concentration of comp. = 10,000 μL; for inhibition zone, Chrysosporium keratinophilum, B: B = concentration of comp. = 30.000 μL; for inhibition zone, Chrysosporium keratinophilum, C: C = concentration of comp. = 50,000 μL
Procedure: as §1, §2

Structure (SMILES)	inhibition zone, Bacillus Cereus, A (Bacillus Cereus)	inhibition zone, Bacillus Cereus, B (Bacillus Cereus)	inhibition zone, Bacillus Cereus, C (Bacillus Cereus)	inhibition zone, Escherichia coli, A (Escherichia coli)	inhibition zone, Escherichia coli, B (Escherichia coli)	inhibition zone, Escherichia coli, C (Escherichia coli)	inhibition zone, Pseudomonas aeruginosa, A (Pseudomonas aeruginosa)	inhibition zone, Pseudomonas aeruginosa, B (Pseudomonas aeruginosa)	inhibition zone, Pseudomonas aeruginosa, C (Pseudomonas aeruginosa)	inhibition zone, Staphylococcus aureus, A (Staphylococcus aureus)	inhibition zone, Staphylococcus aureus, B (Staphylococcus aureus)	inhibition zone, Staphylococcus aureus, C (Staphylococcus aureus)	inhibition zone, Aspergillus flavus, A (Aspergillus flavus)	inhibition zone, Aspergillus flavus, B (Aspergillus flavus)	inhibition zone, Aspergillus flavus, C (Aspergillus flavus)	inhibition zone, Chrysosporium keratinophilum, A [1]	inhibition zone, Chrysosporium keratinophilum, B [1]	inhibition zone, Chrysosporium keratinophilum, C [1]	melting point
O=C1NC(=O)N(/N=C/c2ccccc2O)C1c1ccccc1 (stereo not shown) [Compound 4, 1-(2-hydroxybenzylideneamino)-5-phenylimidazolidine-2,4-dione]	23 millimeter	27 millimeter	35 millimeter	27 millimeter	36 millimeter	49 millimeter	20 millimeter	26 millimeter	37 millimeter	15 millimeter	19 millimeter	27 millimeter	24 millimeter	28 millimeter	38 millimeter	27 millimeter	29 millimeter	48 millimeter	161 to 163 °C
O=C(O)c1cn(C2CC2)c2cc(N3CCNCC3)c(F)cc2c1=O [Cip., ciprofloxacin, reference compound]	29 millimeter	30 millimeter	42 millimeter	30 millimeter	39 millimeter	60 millimeter	29 millimeter	30 millimeter	53 millimeter	43 millimeter	44 millimeter	53 millimeter	29 millimeter	30 millimeter	42 millimeter	29 millimeter	30 millimeter	53 millimeter	
